In patent US8952024B2, “Herbicidal pyrimidone derivatives” (E I du Pont de Nemours and Company, priority 2009, dated 2015):

How the values were obtained:
Assay type in all cases: in vivo
[1] = test system: windgrass (Apera spica-venti); experiment: Test B postemergence plant response; conditions: for Plant response rating, Windgrass: Postemergence
Summary of the method: (§1)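 Visual ratings from 0 (no effect) to 100 (complete control), made against controls 13–15 days after treatment, kept in a greenhouse. Compounds were applied postemergence to potted plants at the 1- to 4-leaf stage (2–18 cm).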

[2] = test system: canarygrass (Phalaris minor); experiment: Test B postemergence plant response; conditions: for Plant response rating, Canarygrass: Postemergence
Summary of the method: as §1

[3] = test system: chickweed (Stellaria media); experiment: Test B postemergence plant response; conditions: for Plant response rating, Chickweed: Postemergence
Summary of the method: as §1

[4] = test system: yellow nutsedge (Cyperus esculentus); experiment: Test B pre-/postemergence plant response; conditions: for Plant response rating, Nutsedge, Yellow: Postemergence
Summary of the method: (§2)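 Greenhouse herbicide screen. Pre- and postemergence (1- to 4-leaf) spray of compound in solvent/surfactant mixture; loam–sand soil for pre, peat/vermiculite medium for post. Visual control rating 0–100 at 13 to 15 days after treatment.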

[5] = test system: ragweed (common ragweed, Ambrosia elatior); experiment: Test B pre-/postemergence plant response; conditions: for Plant response rating, Ragweed: Postemergence
Summary of the method: as §2

[6] = test system: johnsongrass (Sorghum halepense); experiment: Test B pre-/postemergence plant response; conditions: for Plant response rating, Johnsongrass: Postemergence
Summary of the method: as §2

[7] = test system: blackgrass (Alopecurus myosuroides); experiment: Test B pre-/postemergence plant response; conditions: for Plant response rating, Blackgrass: Postemergence
Summary of the method: as §2

[8] = test system: giant foxtail (Setaria faberii); experiment: Test B pre-/postemergence plant response; conditions: for Plant response rating, Foxtail, Giant: Postemergence
Summary of the method: as §2

[9] = test system: green foxtail (Setaria viridis); experiment: Test B pre-/postemergence plant response; conditions: for Plant response rating, Foxtail, Green: Postemergence
Summary of the method: as §2

[10] = test system: bermudagrass (Cynodon dactylon); experiment: Test B pre-/postemergence plant response; conditions: for Plant response rating, Bermudagrass: Postemergence
Summary of the method: as §2

[11] = test system: wheat (Triticum aestivum); experiment: Test B pre-/postemergence plant response; conditions: for Plant response rating, Wheat: Postemergence
Summary of the method: as §2

[12] = test system: velvetleaf (Abutilon theophrasti); experiment: Test B pre-/postemergence plant response; conditions: for Plant response rating, Velvetleaf: Postemergence
Summary of the method: as §2

[13] = test system: soybean (Glycine max); experiment: Test B pre-/postemergence plant response; conditions: for Plant response rating, Soybean: Postemergence
Summary of the method: as §2

[14] = test system: downy bromegrass (Bromus tectorum); experiment: Test B pre-/postemergence plant response; conditions: for Plant response rating, Bromegrass, Downy: Postemergence
Summary of the method: as §2

[15] = test system: cocklebur (Xanthium strumarium); experiment: Test B pre-/postemergence plant response; conditions: for Plant response rating, Cocklebur: Postemergence
Summary of the method: as §2

[16] = test system: kochia (Kochia scoparia); experiment: Test B pre-/postemergence plant response; conditions: for Plant response rating, Kochia: Postemergence
Summary of the method: as §2

[17] = test system: morningglory (Ipomoea coccinea); experiment: Test B pre-/postemergence plant response; conditions: for Plant response rating, Morningglory: Postemergence
Summary of the method: as §2

[18] = test system: wild oat (Avena fatua); experiment: Test B pre-/postemergence plant response; conditions: for Plant response rating, Oat, Wild: Postemergence
Summary of the method: as §2

[19] = 62 g ai/ha, postemergence, 0 is no effect, 100 is complete control, 13 to 15 days
[20] = 31 g ai/ha, 0 to 100 scale (0 no effect, 100 complete control)
[21] = 125 g ai/ha, scale 0 to 100 (0 no effect, 100 complete control)
[22] = 250 g ai/ha, scale 0 to 100 (0 no effect, 100 complete control), 13 to 15 days

SMILES: O=C1CCCC(O)=C1C(=O)c1cnc(-c2ccccc2)n(C2CCCCCC2)c1=O [Compound 130]
- Windgrass plant response rating (0 to 100 scale) [1, 19]: 65
- Plant response rating, Windgrass [1, 20]: 60
- Plant response rating, Windgrass [1, 21]: 75
- Plant response rating, Windgrass [1, 22]: 85
- Canarygrass plant response rating (0 to 100 scale) [2, 19]: 20
- Plant response rating, Canarygrass [2, 20]: 5
- Plant response rating, Canarygrass [2, 21]: 20
- Plant response rating, Canarygrass [2, 22]: 25
- Chickweed plant response rating (0 to 100 scale) [3, 19]: 98
- Plant response rating, Chickweed [3, 20]: 98
- Plant response rating, Chickweed [3, 21]: 100
- Plant response rating, Chickweed [3, 22]: 100
- Nutsedge, Yellow plant response rating (0 to 100 scale) [4, 19]: 20
- Plant response rating, Nutsedge, Yellow [4, 20]: 10
- Plant response rating, Nutsedge, Yellow [4, 21]: 35
- Plant response rating, Nutsedge, Yellow [4, 22]: 40
- Ragweed plant response rating (0 to 100 scale) [5, 19]: 90
- Plant response rating, Ragweed [5, 20]: 85
- Plant response rating, Ragweed [5, 21]: 98
- Plant response rating, Ragweed [5, 22]: 98
- Johnsongrass plant response rating (0 to 100 scale) [6, 19]: 60
- Plant response rating, Johnsongrass [6, 20]: 60
- Plant response rating, Johnsongrass [6, 21]: 80
- Plant response rating, Johnsongrass [6, 22]: 80
- Blackgrass plant response rating (0 to 100 scale) [7, 19]: 5
- Plant response rating, Blackgrass [7, 20]: 0
- Plant response rating, Blackgrass [7, 21]: 5
- Plant response rating, Blackgrass [7, 22]: 5
- Foxtail, Giant plant response rating (0 to 100 scale) [8, 19]: 90
- Plant response rating, Foxtail, Giant [8, 20]: 90
- Plant response rating, Foxtail, Giant [8, 21]: 98
- Plant response rating, Foxtail, Giant [8, 22]: 98
- Foxtail, Green plant response rating (0 to 100 scale) [9, 19]: 90
- Plant response rating, Foxtail, Green [9, 20]: 90
- Plant response rating, Foxtail, Green [9, 21]: 95
- Plant response rating, Foxtail, Green [9, 22]: 98
- Bermudagrass plant response rating (0 to 100 scale) [10, 19]: 90
- Plant response rating, Bermudagrass [10, 20]: 75
- Plant response rating, Bermudagrass [10, 21]: 90
- Plant response rating, Bermudagrass [10, 22]: 95
- Wheat plant response rating (0 to 100 scale) [11, 19]: 5
- Plant response rating, Wheat [11, 20]: 5
- Plant response rating, Wheat [11, 21]: 5
- Plant response rating, Wheat [11, 22]: 10
- Velvetleaf plant response rating (0 to 100 scale) [12, 19]: 95
- Plant response rating, Velvetleaf [12, 20]: 95
- Plant response rating, Velvetleaf [12, 21]: 98
- Plant response rating, Velvetleaf [12, 22]: 100
- Soybean plant response rating (0 to 100 scale) [13, 19]: 98
- Plant response rating, Soybean [13, 20]: 98
- Plant response rating, Soybean [13, 21]: 98
- Plant response rating, Soybean [13, 22]: 100
- Bromegrass, Downy plant response rating (0 to 100 scale) [14, 19]: 15
- Plant response rating, Bromegrass, Downy [14, 20]: 10
- Plant response rating, Bromegrass, Downy [14, 21]: 35
- Plant response rating, Bromegrass, Downy [14, 22]: 40
- Cocklebur plant response rating (0 to 100 scale) [15, 19]: 95
- Plant response rating, Cocklebur [15, 20]: 85
- Plant response rating, Cocklebur [15, 21]: 95
- Plant response rating, Cocklebur [15, 22]: 100
- Kochia plant response rating (0 to 100 scale) [16, 19]: 85
- Plant response rating, Kochia [16, 20]: 85
- Plant response rating, Kochia [16, 21]: 100
- Plant response rating, Kochia [16, 22]: 100
- Morningglory plant response rating (0 to 100 scale) [17, 19]: 95
- Plant response rating, Morningglory [17, 20]: 95
- Plant response rating, Morningglory [17, 21]: 100
- Plant response rating, Morningglory [17, 22]: 100
- Oat, Wild plant response rating (0 to 100 scale) [18, 19]: 30
- Plant response rating, Oat, Wild [18, 20]: 20
- Plant response rating, Oat, Wild [18, 21]: 40
- Plant response rating, Oat, Wild [18, 22]: 60
